# According to patent US20110092367A1, “Herbicidal Compositions Comprising 4-amino-3,6-dichloropyridine-2-carboxylic Acid” (BASF SE, priority 2008, published 2011):
# Legend:
# Type in all cases: in vivo
# Centauria cyanus = assay: Greenhouse trial, post-emergence: CENCY; details: post-emergence; for % activity 28 DAT: CENCY
# Method: (§1) The test plants have been seeded, separately for each species, in plastic containers in sandy loamy soil containing 5% organic matter.
# (§2) For the post emergence treatment, the plants were first grown to the 2 leaf station (GS 12). Here, the herbicidal compositions were suspended or emulsified in water as distribution medium and sprayed using finely distributing nozzels.
# (§3) The plants have been cultivated due to there individual requirements at 10-25° C. and 20-35° C. The plants were irrigated due to there necessity. […]
# (§4) The evaluation for the damage on undesired weeds caused by the chemical compositions was carried out using a scale from 0 to 100%, compared to the untreated control plants. Here, 0 means no damage and 100 means complete destruction of the plants.
# (§5) Calculation of expected activity of binary mixtures was done by using the Colby-Formula according to Example 1.
# Mercurialis annua = assay: Greenhouse trial, post-emergence: MERAN; details: for % activity 28 DAT: MERAN
# Method: as §1, §2, §3, §4, §5
# Lamium purpureum = assay: Greenhouse trial, post-emergence: LAMPU; details: for % activity 28 DAT: LAMPU
# Method: as §1, §2, §3, §4, §5
# Papaver rhoeas [1] = assay: Greenhouse trial, post-emergence: PAPRH
# Method: as §1, §2, §3, §4, §5
# Capsella bursa-pasturis = assay: Greenhouse trial, post-emergence: CAPBP; details: post-emergence (Table 10)
# Method: as §1, §2, §3, §4, §5
# Stellaria media [2] = assay: Greenhouse trial, post-emergence: STEME; details: flufenacet 60 g ai/ha solo, post-emergence
# Method: as §1, §2, §3, §4, §5
# Matricaria chamomilla = assay: Greenhouse trial, post-emergence: MATCH; details: solo, 187 g ai/ha, greenhouse
# Method: as §1, §2
# The plants have been cultivated due to there individual requirements at 10-25° C. and 20-35° C. The plants were irrigated due to there necessity.
# In the following experiments, the herbicidal activity for the individual herbicide compounds (solo and mixture applications), the herbicidal succession was assessed 14 days after treatment (DAT).
# as §4, §5
# E=(X+Y+Z)−(X*Y+X*Z+Y*Z/100)+(X*Y*Z/1000)
# Tables 6 to 10 relate to the herbicidal activity, in greenhouse trials, of the individual actives and the combination in post-emergence application 14 DAT.
# Centaurea cyanus = assay: Field trial Example 2, combined application: CENCY; details: Metazachlor 375 g ai/ha solo, 78 DAT
# Method: (§6) Aminiopyralid was used as commercial aquaeous solution having an active ingredient concentration of 240 g/l (Milestone™). Metazachlor was used as a commercial suspension concentrate having an active ingredient concentration of 500 g/l (Butisan S®).
# as §4
# (§7) The value E, which is to be expected if the activity of the individual compounds is just additive, was calculated using the method of S. R. Colby (1967) “Calculating synergistic and antagonistic responses of herbicide combinations”, Weeds 15, p. 22 ff.
# (§8) The performance of aminopyralid, applied as an alone treatment at […] and 15 g ai/ha, and the performance of metazachlor, applied as an alone treatment at 375 and 500 g ai/ha, as well as the mixtures of the both compounds have been assessed in winter oilseed rape field trials. The trials have been conducted in Germany at two locations.
# (§9) Post emergence treatment was applied by means of fine distributed nozzels at the growth stage (GS/BBCH 11/12).
# Papaver rhoeas [3] = assay: Field trial Example 2, combined application: PAPRH
# Method: as §6, §4, §7, §8, §9
# Anthemis arvensis = assay: Field trial Example 2, combined application: ANTAR
# Method: as §6, §4, §7, §8, §9
# Stellaria media [4] = assay: Field trial Example 2, combined application: STEME; details: Metazachlor 500 g ai/ha solo, 28 DAT
# Method: as §6, §4, §7, §8, §9
# Alopecurus myosuroides = assay: Field trial Example 2, combined application: ALOMY; details: Metazachlor 500 g ai/ha solo, 28 DAT
# Method: as §6, §4, §7, §8, §9
# Matricaria inodora = assay: Field trial Example 2, combined application: MATIN
# Method: as §6, §4, §7, §8, §9
# [5] = clopyralid 60 g ai/ha solo, post-emergence (Table 10)
# [6] = clopyralid 120 g ai/ha solo, post-emergence (Table 10)
# [7] = metazachlor 187 g ai/ha solo, post-emergence (Table 10)
# [8] = metazachlor 375 g ai/ha solo, post-emergence (Table 10)
# [9] = Metazachlor 375 g ai/ha solo, 28 DAT
# [10] = Metazachlor 375 g ai/ha solo, 29 DAT
# [11] = Metazachlor 500 g ai/ha solo, 29 DAT
# [12] = pethoxamid 600 g ai/ha solo, post-emergence
structure (smiles),measurement,setting,value
"COC[C@H](C)N(C(=O)CCl)c1c(C)csc1C [DMTA-P, Dimethenamid-P]",% activity 28 DAT,Centauria cyanus; DMTA-P 125 g ai/ha solo,20%
same,% activity 28 DAT,"Mercurialis annua; DMTA-P 63 g ai/ha solo, post-emergence",15%
same,% activity 28 DAT,"Mercurialis annua; DMTA-P 125 g ai/ha solo, post-emergence",25%
O=C(O)c1nc(Cl)ccc1Cl [clopyralid],% activity 28 DAT,Lamium purpureum; [5],15%
same,% activity 28 DAT,Lamium purpureum; [6],15%
same,% activity 28 DAT,Papaver rhoeas [1]; [6],20%
same,% activity 28 DAT,Mercurialis annua; [5],15%
same,% activity 28 DAT,Capsella bursa-pasturis; clopyralid 120 g ai/ha solo,10%
CC(C)N(C(=O)COc1nnc(C(F)(F)F)s1)c1ccc(F)cc1 [flufenacet],% activity 28 DAT,Stellaria media [2],0%
same,% activity 28 DAT,"Lamium purpureum; flufenacet 60 g ai/ha solo, post-emergence",60%
same,% activity 28 DAT,"Lamium purpureum; flufenacet 120 g ai/ha solo, post-emergence",60%
same,% activity 28 DAT,Centauria cyanus; flufenacet 60 g ai/ha solo,0%
same,% activity 28 DAT,Centauria cyanus; flufenacet 120 g ai/ha solo,20%
Cc1cccc(C)c1N(Cn1cccn1)C(=O)CCl [metazachlor],inhibition at 187 g/ha,Matricaria chamomilla,10%
same,% activity,Centaurea cyanus,32%
same,% activity 28 DAT,Lamium purpureum; [7],75%
same,% activity 28 DAT,Lamium purpureum; [8],75%
same,inhibition at 187 g/ha,"Lamium purpureum; Lamium purpureum, 672 h, solo, 187 g ai/ha, post-emergence, greenhouse, 28 DAT",75%
same,% activity,Papaver rhoeas [3]; [9],50%
same,% activity,Papaver rhoeas [3]; [10],55%
same,% activity,"Papaver rhoeas [3]; Metazachlor 375 g ai/ha solo, 72 DAT",53%
same,% activity,"Papaver rhoeas [3]; Metazachlor 375 g ai/ha solo, 78 DAT",55%
same,% activity,Papaver rhoeas [3]; [11],75%
same,% activity,Anthemis arvensis; [10],40%
same,% activity,Anthemis arvensis; [11],57%
same,% activity,"Anthemis arvensis; Metazachlor 500 g ai/ha solo, 78 DAT",60%
same,inhibition at 187 g/ha,"Centauria cyanus; 672 h, solo, 187 g ai/ha, greenhouse, 28 DAT",20%
same,% activity 28 DAT,Papaver rhoeas [1]; [8],30%
same,% activity,Stellaria media [4],88%
same,% activity 28 DAT,Mercurialis annua; [7],15%
same,inhibition at 187 g/ha,"Mercurialis annua; Mercurialis annua, 672 h, solo, 187 g ai/ha, post-emergence, greenhouse, 28 DAT",15%
same,% activity,Alopecurus myosuroides,82%
same,% activity 28 DAT,Capsella bursa-pasturis; metazachlor 375 g ai/ha solo,25%
same,% activity,Matricaria inodora; [9],42%
same,% activity,Matricaria inodora; [10],88%
same,% activity,"Matricaria inodora; Metazachlor 500 g ai/ha solo, 28 DAT",67%
CCOCCN(C(=O)CCl)C(=C(C)C)c1ccccc1 [pethoxamid],% activity 28 DAT,Centauria cyanus; pethoxamid 150 g ai/ha solo,0%
same,% activity 28 DAT,Centauria cyanus; pethoxamid 300 g ai/ha solo,25%
same,% activity 28 DAT,Centauria cyanus; pethoxamid 600 g ai/ha solo,30%
same,% activity 28 DAT,Papaver rhoeas [1]; [12],25%
same,% activity 28 DAT,"Mercurialis annua; pethoxamid 150 g ai/ha solo, post-emergence",0%
same,% activity 28 DAT,"Mercurialis annua; pethoxamid 300 g ai/ha solo, post-emergence",0%
same,% activity 28 DAT,Mercurialis annua; [12],10%
